{"source": "patent US6930075B1", "about": "“Fatty acid-based herbicidal composition” (priority 1990, dated 2005)", "assay_in_all_cases": "Greenhouse post-emergence spray, plant damage rating", "assay_type_in_all_cases": "in vivo", "key": {"[1]": {"test_system": "Hypochoeris radicata (false dandelion)", "details": "H. radicata, alone and combined", "experimental": "(§1) Three species of weed, used in each test: Hypochoeris radicata (false dandelion), Sinapis, arvensis (wild mustard), and Avena sativa (oats), were grown in a greenhouse facility in 5.5 cm square pots using a potting soil mix comprising peat, vermiculite, sand, and 4-10-10 fertilizer. Water-soluble 20-20-20 fertilizer was used as a supplement for the plants as required. The plants were selected for use based on uniformity and quality and were potted separately. One plant per pot each of H. radicata (6–10 leaves) and S. arvensis (4–6 leaves) were used. Six to eight plants of A. sativa (2–4 leaves) were used per pot. After spraying with a herbicidal composition (as described below) the pots were arranged in a randomized complete block design in sub-irrigated watering trays. Six to ten replicates (pots) were used per treatment.\n(§2) Herbicidal treatments were applied using a spray chamber fitted with a TeeJet 8006E flat fan nozzle (available from Spraying Systems Co., Wheaton, Ill.), calibrated to spray at a volume of 60 gpa at 40 psi. Treatment solutions were freshly prepared for each experiment. Plant damage was assessed at 10 to 14 days after treatment using a pre-transformed 0–10 rating scale (0 representing no damage, 10 representing plant death) in accordance with the procedure outlined in Statistical Methods in Agricultural Research, Little, T. M. et al, J. Wiley and Sons, 1975, pp. 119–120, 218."}, "[2]": {"test_system": "Sinapis arvensis (wild mustard)", "details": "S. arvensis, alone and combined", "experimental": "as §1, §2"}, "Avena sativa (oats)": {"test_system": "Avena sativa (oats)", "details": "A. sativa, alone and combined", "experimental": "as §1, §2"}, "[3]": {"details": "Table 3 set 1: Round-Up 0.1%, Potassium pelargonate 0.1%"}, "[4]": {"details": "Table 3 set 2: Round-Up 0.1%, Potassium pelargonate 0.5%"}, "[5]": {"details": "Table 3 set 3: Round-Up 0.1%, Potassium pelargonate 0.5% (so in the source)"}}}
{"smiles": "CCCCCCCCC(=O)[O-].[K+]", "note": "[Potassium pelargonate]", "values": [{"measurement": "Phytotoxicity (%) Observed", "setting": "[1]; [3]", "value": 0, "unit": "%"}, {"measurement": "Phytotoxicity (%) Observed", "setting": "[1]; [4]", "value": 0, "unit": "%"}, {"measurement": "Phytotoxicity (%) Observed", "setting": "[1]; [5]", "value": 3, "unit": "%"}, {"measurement": "Phytotoxicity (%) Observed", "setting": "[2]; [3]", "value": 0, "unit": "%"}, {"measurement": "Phytotoxicity (%) Observed", "setting": "[2]; [4]", "value": 0, "unit": "%"}, {"measurement": "Phytotoxicity (%) Observed", "setting": "[2]; [5]", "value": 2, "unit": "%"}, {"measurement": "Phytotoxicity (%) Observed", "setting": "Avena sativa (oats); [3]", "value": 6, "unit": "%"}, {"measurement": "Phytotoxicity (%) Observed", "setting": "Avena sativa (oats); [4]", "value": 5, "unit": "%"}, {"measurement": "Phytotoxicity (%) Observed", "setting": "Avena sativa (oats); [5]", "value": 7, "unit": "%"}]}
